Among the data in patent US9499550B2 (BRISTOL-MYERS SQUIBB COMPANY, priority 2012, dated 2016) are EC50 values, retold here.

Like-named read-outs stand apart in the source and are kept apart here.

One may read the EC50 as the concentration giving half of the maximal effect.

For test [1], the system named is HCV genotype 1a (H77 strain) replicon in HUH-7 cells. The test can be described thus: HCV replicon luciferase reporter assay, genotype 1a. Format: cell-based. The note with it: Hepatitis C virus, Huh-7, 72 h, HCV genotype 1a replicon luciferase, 3 days incubation. The method, boiled down: (§1)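 Replicon inhibition for both genotypes was measured as Renilla luciferase signal (EnduRen, 7.5 μM final, 2 h) after 3-day, 37° C exposure of replicon-bearing HUH-7 cells in 4% FCS DMEM, 0.5% DMSO. The 1b construct carries S1179I; the 1a H77 construct carries P1496L and S2204I. Twenty-point, 3-fold dilutions were fitted four-parametrically for EC50, and CC50 was taken from multiplexed Cell Titer-Blue.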
Background: A replicon is a self-replicating genome or part of one, used to study replication in cells.

Test [2] concerns HCV genotype 1b (Con1) replicon in HUH-7 cells. The test can be described thus: HCV replicon luciferase reporter assay, genotype 1b. Format: cell-based. The conditions noted are these: Hepatitis C virus, Huh-7, 72 h, HCV genotype 1b replicon luciferase, 3 days incubation. The gist of the method:
as §1

[3] abbreviates: GETYPE1A, read-out: LE_1a (EC50, range).
[4] abbreviates: GETYPE1B, read-out: LE_1b (EC50, range).
The mark [5] stands for this setting: GETYPE1A, read-out: LE_1a (EC50).
Setting [6] is: GETYPE1B, read-out: LE_1b (EC50).

On to `CC[C@@H]1C[C@H](C)CC/C=C\[C@@H]2C[C@@]2(C(=O)NS(=O)(=O)C2CC2)NC(=O)[C@@H]2C[C@@H](Oc3ncc(C(=O)O)c4cc(OC)ccc34)CN2C(=O)[C@H]1NC(=O)OC(C)(C)C(F)(F)F` [Compound 4279, 1-(((2R,6S,7R,9R,13aS,14aR,16aS,Z)-14a-((cyclopropylsulfonyl)carbamoyl)-7-ethyl-9-methyl-5,16-dioxo-6-((((1,1,1-trifluoro-2-methylpropan-2-yl)oxy)carbonyl)amino)-1,2,3,5,6,7,8,9,10,11,13a,14,14a,15,16,16a-hexadecahydrocyclopropa[e]pyrrolo[1,2-1,2-a][1,4]diazacyclopentadecin-2-yl)oxy)-6-methoxyisoquinoline-4-carboxylic acid], for which the EC50 in test [1] (read-out: LE_1a (EC50, range)) was in the range of 35 to 620 nM; in test [2] (read-out: LE_1b (EC50, range)) it was 35 to 620 nM.

For the molecule `CC[C@@H]1C[C@H](C)CC/C=C\[C@@H]2C[C@@]2(C(=O)NS(=O)(=O)C2(C)CC2)NC(=O)[C@@H]2C[C@@H](Oc3ncc(OC)c4ccc(F)cc34)CN2C(=O)[C@H]1NC(=O)N1CCS(=O)(=O)CC1` [Compound 4283, N-((2R,6S,7R,9R,13aS,14aR,16aS,Z)-7-ethyl-2-((7-fluoro-4-methoxyisoquinolin-1-yl)oxy)-9-methyl-14a-(((1-methylcyclopropyl)sulfonyl)carbamoyl)-5,16-dioxo-1,2,3,5,6,7,8,9,10,11,13a,14,14a,15,16,16a-hexadecahydrocyclopropa[e]pyrrolo[1,2-a][1,4]diazacyclopentadecin-6-yl)thiomorpholine-4-carboxamide 1,1-dioxide], the EC50 lay in the range of 5.01 to 35 nM in test [1] (read-out: LE_1a (EC50, range)) and 1.01 to 5 nM in test [2] (read-out: LE_1b (EC50, range)).

As to `CC[C@@H]1C[C@H](C)CC/C=C\[C@@H]2C[C@@]2(C(=O)NS(=O)(=O)C2(C)CC2)NC(=O)[C@@H]2C[C@@H](Oc3ncc(OC)c4ccc(F)cc34)CN2C(=O)[C@H]1NC(=O)N1CCOCC1` [Compound 4284, N-((2R,6S,7R,9R,13aS,14aR,16aS,Z)-7-ethyl-2-((7-fluoro-4-methoxyisoquinolin-1-yl)oxy)-9-methyl-14a-(((1-methylcyclopropyl)sulfonyl)carbamoyl)-5,16-dioxo-1,2,3,5,6,7,8,9,10,11,13a,14,14a,15,16,16a-hexadecahydrocyclopropa[e]pyrrolo[1,2-a][1,4]diazacyclopentadecin-6-yl)morpholine-4-carboxamide], the EC50 in test [1] (read-out: LE_1a (EC50)) was 0.73 nM; in test [1] (read-out: LE_1a (EC50, range)), 0.51 to 1 nM; in test [2] (read-out: LE_1b (EC50)), 0.42 nM; in test [2] (read-out: LE_1b (EC50, range)), 0.1 to 0.5 nM.

As to `COc1cc2nc(O[C@@H]3C[C@H]4C(=O)N[C@]5(C(=O)NS(=O)(=O)C6(C)CC6)C[C@H]5/C=C\CC[C@H](C)C[C@@H](C)[C@H](NC(=O)OC(C)(C)C(F)(F)F)C(=O)N4C3)c(C(F)(F)F)nc2cc1F` [Compound 4289], the EC50 in test [1] (setting [3]) lay within 5.01 to 35 nM; in test [2] (setting [4]), 1.01 to 5 nM.

For `COc1cc2nc(O[C@@H]3C[C@H]4C(=O)N[C@]5(C(=O)NS(=O)(=O)C6(C)CC6)C[C@H]5/C=C\CC[C@@H](C)C[C@@H](C)[C@H](NC(=O)OC(C)(C)C(F)(F)F)C(=O)N4C3)c(C(F)(F)F)nc2cc1F` [Compound 4290], the EC50 in test [1] (setting [3]) is 1.01 to 5 nM; in test [2] (setting [4]), 0.51 to 1 nM.

Regarding `CCOc1ccc2nc(Cl)c(O[C@@H]3C[C@H]4C(=O)N[C@]5(C(=O)NS(=O)(=O)C6(CF)CC6)C[C@H]5/C=C\CC[C@@H](C)C[C@@H](C)[C@H](NC(=O)OC(C)(C)C(F)(F)F)C(=O)N4C3)c(Cl)c2c1` [Compound 4292], the EC50 in test [1] (setting [3]) and in test [2] (setting [4]) was 5.01 to 35 nM in each case.

Regarding `CCOc1ccc2ncc(O[C@@H]3C[C@H]4C(=O)N[C@]5(C(=O)NS(=O)(=O)C6(CF)CC6)C[C@H]5/C=C\CC[C@@H](C)C[C@@H](C)[C@H](NC(=O)OC(C)(C)C(F)(F)F)C(=O)N4C3)cc2c1` [Compound 4296], the EC50 is 11.9 nM in test [1] (setting [5]), 5.01 to 35 nM in test [1] (setting [3]), 5.46 nM in test [2] (setting [6]) and 5.01 to 35 nM in test [2] (setting [4]).

As for `CC[C@@H]1C[C@H](C)CC/C=C\[C@@H]2C[C@@]2(C(=O)NS(=O)(=O)C2(C)CC2)NC(=O)[C@@H]2C[C@@H](Oc3cc(Cl)c4ccc(OC)cc4n3)CN2C(=O)[C@H]1NC(=O)OC(C)(C)C(F)(F)F` [Compound 4298], the EC50 in test [1] (setting [3]) and in test [2] (setting [4]) was 1.01 to 5 nM each time.

Regarding `COc1ccc2c(Cl)cc(O[C@@H]3C[C@H]4C(=O)N[C@]5(C(=O)NS(=O)(=O)C6(C)CC6)C[C@H]5/C=C\CC[C@@H](C)C[C@@H](C)[C@H](NC(=O)OC(C)(C)C)C(=O)N4C3)nc2c1` [Compound 4300, tert-butyl ((2R,6S,7R,9R,13aS,14aR,16aS,Z)-2-((4-chloro-7-methoxyquinolin-2-yl)oxy)-7,9-dimethyl-14a-(((1-methylcyclopropyl)sulfonyl)carbamoyl)-5,16-dioxo-1,2,3,5,6,7,8,9,10,11,13a,14,14a,15,16,16a-hexadecahydrocyclopropa[e]pyrrolo[1,2-a][1,4]diazacyclopentadecin-6-yl)carbamate], the EC50 lay within 0.51 to 1 nM in test [1] (read-out: LE_1a (EC50, range)) and 0.51 to 1 nM in test [2] (read-out: LE_1b (EC50, range)).

In the case of `COc1ccc2c(Cl)cc(O[C@@H]3C[C@H]4C(=O)N[C@]5(C(=O)NS(=O)(=O)C6(C)CC6)C[C@H]5/C=C\CC[C@@H](C)C[C@@H](C)[C@H](NC(=O)OC(C)(C)C(F)(F)F)C(=O)N4C3)nc2c1` [Compound 4302], the concentration giving a half-maximal response (EC50) in test [1] (setting [3]) and in test [2] (setting [4]) was 1.01 to 5 nM throughout.

Take `CC[C@@H]1C[C@H](C)CC/C=C\[C@@H]2C[C@@]2(C(=O)NS(=O)(=O)C2CC2)NC(=O)[C@@H]2C[C@@H](Oc3nc4ccc(OC)cc4nc3N(C)C)CN2C(=O)[C@H]1NC(=O)OC(C)(C)C` [Compound 4304, tert-butyl ((2R,6S,7R,9R,13aS,14aR,16aS,Z)-14a-((cyclopropylsulfonyl)carbamoyl)-2-((3-(dimethylamino)-6-methoxyquinoxalin-2-yl)oxy)-7-ethyl-9-methyl-5,16-dioxo-1,2,3,5,6,7,8,9,10,11,13a,14,14a,15,16,16a-hexadecahydrocyclopropa[e]pyrrolo[1,2-a][1,4]diazacyclopentadecin-6-yl)carbamate]: the EC50 in test [1] (read-out: LE_1a (EC50, range)) lay within 35 to 620 nM; in test [2] (read-out: LE_1b (EC50, range)), 5.01 to 35 nM.

With `CC[C@@H]1C[C@H](C)CC/C=C\[C@@H]2C[C@@]2(C(=O)NS(=O)(=O)C2CC2)NC(=O)[C@@H]2C[C@@H](Oc3nc4ccc(OC)cc4nc3N(C)C)CN2C(=O)C1NC(=O)OC(C)(C)C(F)(F)F` (stereo partly shown) [Compound 4305], the EC50 lay in the range of 35 to 620 nM in test [1] (setting [3]) and 5.01 to 35 nM in test [2] (setting [4]).

`COc1cnc2ccc(O[C@@H]3C[C@H]4C(=O)N[C@]5(C(=O)NS(=O)(=O)C6(C)CC6)C[C@H]5/C=C\CC[C@@H](C)C[C@@H](C)[C@H](NC(=O)OC(C)(C)C)C(=O)N4C3)cc2n1` [Compound 4310, tert-butyl ((2R,6S,7R,9R,13aS,14aR,16aS,Z)-2-((3-methoxyquinoxalin-6-yl)oxy)-7,9-dimethyl-14a-(((1-methylcyclopropyl)sulfonyl)carbamoyl)-5,16-dioxo-1,2,3,5,6,7,8,9,10,11,13a,14,14a,15,16,16a-hexadecahydrocyclopropa[e]pyrrolo[1,2-a][1,4]diazacyclopentadecin-6-yl)carbamate]: the 50% effective concentration (EC50) fell in the range of 0.51 to 1 nM in test [1] (read-out: LE_1a (EC50, range)) and 1.01 to 5 nM in test [2] (read-out: LE_1b (EC50, range)).

As to `CCOc1ccc2ncc(O[C@@H]3C[C@H]4C(=O)N[C@]5(C(=O)NS(=O)(=O)C6(C)CC6)C[C@H]5/C=C\CC[C@@H](C)C[C@@H](C)[C@H](NC(=O)OC(C)(C)C)C(=O)N4C3)cc2c1` [Compound 4311, tert-butyl ((2R,6S,7R,9R,13aS,14aR,16aS,Z)-2-((6-ethoxyquinolin-3-yl)oxy)-7,9-dimethyl-14a-(((1-methylcyclopropyl)sulfonyl)carbamoyl)-5,16-dioxo-1,2,3,5,6,7,8,9,10,11,13a,14,14a,15,16,16a-hexadecahydrocyclopropa[e]pyrrolo[1,2-a][1,4]diazacyclopentadecin-6-yl)carbamate], the EC50 in test [1] (read-out: LE_1a (EC50, range)) lay within 1.01 to 5 nM; in test [2] (read-out: LE_1b (EC50, range)) it was 1.01 to 5 nM.

Take `CCOc1ccc2nc(Cl)c(O[C@@H]3C[C@H]4C(=O)N[C@]5(C(=O)NS(=O)(=O)C6(C)CC6)C[C@H]5/C=C\CC[C@@H](C)C[C@@H](C)[C@H](NC(=O)OC(C)(C)C(F)(F)F)C(=O)N4C3)c(Cl)c2c1` [Compound 4312]: the EC50 in test [1] (setting [5]) was 20.9 nM; in test [1] (setting [3]), 5.01 to 35 nM; in test [2] (setting [6]), 12.2 nM; in test [2] (setting [4]), 5.01 to 35 nM.

Take `CCOc1ccc2ncc(O[C@@H]3C[C@H]4C(=O)N[C@]5(C(=O)NS(=O)(=O)C6(C)CC6)C[C@H]5/C=C\CC[C@@H](C)C[C@@H](C)[C@H](NC(=O)OC(C)(C)C(F)(F)F)C(=O)N4C3)cc2c1` [Compound 4313]: the EC50 in test [1] (setting [3]) fell in the range of 0.51 to 1 nM; in test [2] (setting [4]) it was 0.1 to 0.5 nM.

For the molecule `CCOc1ccc2ncc(O[C@@H]3C[C@H]4C(=O)N[C@]5(C(=O)NS(=O)(=O)C6(C)CC6)C[C@H]5/C=C\CC[C@@H](C)C[C@@H](CC)[C@H](NC(=O)OC(C)(C)C(F)(F)F)C(=O)N4C3)cc2c1` [Compound 4314], the EC50 in test [1] (setting [3]) and in test [2] (setting [4]) was 1.01 to 5 nM throughout.
